The results in this text go back to patent US9434711B2 (Janssen Pharmaceutica, NV, priority 2007, dated 2016).

For orientation: IC50 means the point on the concentration scale where inhibition reaches its midpoint.

The target in the test is canine TRPM8 (Canis lupus familiaris, UniProt Q1A7N1). The test is described as follows: In Vitro Canine TRPM8 Functional Assay (Ca2+ fluorescence, icilin activation). It is filed as cell-based. The settings on record: for IC50: read-out: IC50; for inhibition at 0.2 µM: read-out: % Inh @ 0.2; for inhibition at 0.5 µM: compound at 0.5 μM, read-out: % Inh @ 0.5. In outline:
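Cells (HEK293, stable canine TRPM8) are seeded 24 h before assay. They are then dye-loaded with Calcium 3 at 37 °C followed by room temperature. Compound is added and monitored for 5 min, after which icilin (~80% maximal response) is added.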

Setting [1] is: HEK293 cells stably expressing canine TRPM8, icilin activation, eight-point dose-response.
Where [2] appears, read: compound at 0.2 μM, canine TRPM8, icilin activation.
[3] abbreviates: 0.2 μM compound, HEK293 cells stably expressing canine TRPM8, icilin activation.
Where [4] appears, read: canine TRPM8, icilin activation.

Like-named read-outs stand apart in the source and are kept apart here.

Sequence of canine TRPM8 (Q1A7N1 1-1104): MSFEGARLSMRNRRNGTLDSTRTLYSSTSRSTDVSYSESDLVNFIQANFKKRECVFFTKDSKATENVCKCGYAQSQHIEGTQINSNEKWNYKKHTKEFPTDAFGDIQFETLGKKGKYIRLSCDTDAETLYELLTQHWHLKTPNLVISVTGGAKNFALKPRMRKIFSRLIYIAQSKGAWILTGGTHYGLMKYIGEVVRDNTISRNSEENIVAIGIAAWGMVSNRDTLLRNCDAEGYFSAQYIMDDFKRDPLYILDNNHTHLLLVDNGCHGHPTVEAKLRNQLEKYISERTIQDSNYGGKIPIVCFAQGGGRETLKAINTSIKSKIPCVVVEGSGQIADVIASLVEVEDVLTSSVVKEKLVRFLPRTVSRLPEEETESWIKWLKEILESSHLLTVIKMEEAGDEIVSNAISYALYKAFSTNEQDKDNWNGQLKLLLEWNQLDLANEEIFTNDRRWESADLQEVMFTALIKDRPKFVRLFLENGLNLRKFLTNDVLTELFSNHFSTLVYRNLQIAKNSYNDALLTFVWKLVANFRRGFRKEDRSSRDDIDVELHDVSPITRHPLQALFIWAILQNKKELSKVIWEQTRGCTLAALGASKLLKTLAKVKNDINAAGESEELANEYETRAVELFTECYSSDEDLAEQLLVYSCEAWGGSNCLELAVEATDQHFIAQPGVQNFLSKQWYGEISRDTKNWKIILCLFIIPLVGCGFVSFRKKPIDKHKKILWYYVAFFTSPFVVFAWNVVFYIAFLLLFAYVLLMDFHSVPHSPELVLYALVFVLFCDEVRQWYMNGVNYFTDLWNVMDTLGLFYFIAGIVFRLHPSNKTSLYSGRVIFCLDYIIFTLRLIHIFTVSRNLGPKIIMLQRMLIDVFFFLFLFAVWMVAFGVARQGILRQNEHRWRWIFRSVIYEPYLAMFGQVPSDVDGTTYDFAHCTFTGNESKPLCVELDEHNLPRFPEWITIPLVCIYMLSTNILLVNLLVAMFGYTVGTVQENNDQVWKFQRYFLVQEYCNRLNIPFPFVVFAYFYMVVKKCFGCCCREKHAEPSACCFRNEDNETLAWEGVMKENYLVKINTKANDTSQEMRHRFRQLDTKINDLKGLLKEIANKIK

As to `CN(C)S(=O)(=O)N(Cc1ccc(F)c(C(F)(F)F)c1)c1sc2ccccc2c1Br` [Compound 317, N-(3-Bromo-benzo[b]thiophen-2-yl)-N-(4-fluoro-3-trifluoromethyl-benzyl)-N′,N′-dimethlysulfamide], under setting [1], the IC50 amounted to 17 nM. For the same molecule, the “% Inh @ 0.2 (μM)” value under setting [2] was determined as 102%.

Consider `CCCCN(c1sc2ccccc2c1Br)S(=O)(=O)CC` [Compound 261, N-(3-Bromo-benzo[b]thiophen-2-yl)-N-(butyl)-ethanesulfonamide], for which, under setting [1], the IC50 came to 12.6 nM. In addition, under setting [2], the inhibition at 0.2 µM is 97%.

As for `Cc1c(N(Cc2cccc(OC(F)(F)F)c2)S(=O)(=O)CCCBr)sc2ccccc12` [Compound 769, N-(3-Methyl-benzo[b]thiophen-2-yl)-N-(3-trifluoromethoxy-benzyl)-3-bromo-propane-1-sulfonamide], the IC50 under setting [1] was found to be 44 nM. The inhibition at 0.2 µM under setting [2] turned out to be 85%.

As to `CCCCN(c1sc2cc(C(F)(F)F)ccc2c1C)S(=O)(=O)c1ccc(C(=O)O)cc1` [Compound 558, N-(3-Methyl-6-trifluoromethyl-benzo[b]thiophen-2-yl)-N-(butyl)-4-carboxy-benzenesulfonamide], the IC50 under setting [1] stood at 99.4 nM. Also, the inhibition at 0.2 µM under setting [2] turned out to be 80.9%.

In the case of `CCCCN(c1cc2ccccc2s1)S(=O)(=O)c1ccc(C(N)=NO)cc1` [Compound 471, N-(Benzo[b]thiophen-2-yl)-N-(butyl)-4-N-hydroxy-benzamidinesulfonamide], the IC50 under setting [1] was found to be 59 nM. The “% Inh @ 0.2 (μM)” value under setting [2] worked out at 97%.

In the case of `COC(=O)c1ccc(S(=O)(=O)N(CCF)c2cc3ccccc3s2)cc1` [Compound 843, N-(Benzo[b]thiophen-2-yl)-N-(2-fluoro-ethyl)-4-carbomethoxy-benzenesulfonamide], the inhibition at 0.2 µM under setting [3] came out at 31%.

Consider `CC(C)(C)OC(=O)N1CCC(CN(c2sc3ccccc3c2Cl)S(=O)(=O)c2ccccc2)CC1` [Compound 90, N-(3-Chloro-benzo[b]thiophen-2-yl)-N-{[1-(carbo-tert-butoxy)piperidin-4-yl]-methyl}-benzenesulfonamide], for which the IC50 under setting [1] stood at 21 nM. Besides, the inhibition at 0.5 µM under setting [4] was 99%. For the molecule `O=C(O)c1ccc(S(=O)(=O)N(Cc2ccc(F)c(C(F)(F)F)c2)c2cc3ccccc3s2)cc1` [Compound 296, N-(Benzo[b]thiophen-2-yl)-N-(4-fluoro-3-trifluoromethyl-benzyl)-4-carboxy-benzenesulfonamide], the IC50 under setting [1] stood at 2 nM. In addition, the inhibition at 0.2 µM under setting [2] was found to be 96%.

`Nc1ccc(S(=O)(=O)N(Cc2ccc(F)c(C(F)(F)F)c2)c2sc3ccccc3c2Br)cc1` [Compound 650, 4-Amino-N-(3-bromo-benzo[b]thiophen-2-yl)-N-(4-fluoro-3-trifluoromethyl-benzyl)-benzenesulfonamide]: the IC50 under setting [1] worked out at 4 nM. Moreover, under setting [2], the inhibition at 0.2 µM worked out at 102%.

Turning to `O=S(=O)(c1ccccc1)N(Cc1cccc(OC(F)(F)F)c1)c1sc2ccccc2c1Br` [Compound 173, N-(3-Bromo-benzo[b]thiophen-2-yl)-N-(3-trifluoromethoxy-benzyl)-benzenesulfonamide], the IC50 under setting [1] came to 8.4 nM. In addition, the inhibition at 0.5 µM under setting [4] came out at 99%. Turning to `CCCN(c1sc2ccccc2c1Br)S(=O)(=O)c1ccc(C(=O)O)cc1` [Compound 391, N-(3-Bromo-benzo[b]thiophen-2-yl)-N-(propyl)-4-carboxy-benzenesulfonamide], the IC50 under setting [1] was found to be 47 nM. In addition, the inhibition at 0.2 µM under setting [2] turned out to be 93%. Regarding `O=[N+]([O-])c1ccccc1CN(c1sc2ccccc2c1Br)S(=O)(=O)c1ccccc1` [Compound 171, N-(3-Bromo-benzo[b]thiophen-2-yl)-N-(2-nitro-benzyl)-benzenesulfonamide], the IC50 under setting [1] was 19.3 nM. For the same molecule, the inhibition at 0.5 µM under setting [4] worked out at 100%. On to `CC(C)(O)c1c(N(Cc2ccc(F)c(Cl)c2)S(=O)(=O)c2ccc(Br)cc2)sc2ccccc12` [Compound 737, N-(3-Chloro-4-fluorobenzyl)-N-(3-(1-hydroxy-1-methyl-ethyl)-benzo[b]thiophen-2-yl)-4-bromo-benzenesulfonamide], for which the IC50 under setting [1] was 29.9 nM. The inhibition at 0.2 µM under setting [2] came out at 101%. `O=S(=O)(c1ccccc1)N(CCCF)c1sc2ccccc2c1CO` [Cpd 820]: the “% Inh @ 0.2 (μM)” value under setting [3] is reported as 102%. Further, for the setting “HEK293 cells stably expressing canine TRPM8, icilin activation, average of two or more determinations”, the IC50 came out at 28 nM. For `COc1cc(CN(c2cc3ccccc3s2)S(=O)(=O)c2ccccc2)ccc1F` [Compound 60, N-(Benzo[b]thiophen-2-yl)-N-(4-fluoro-3-methoxy-benzyl)-benzenesulfonamide], the IC50 under setting [1] came out at 28.3 nM. Besides, the inhibition at 0.5 µM under setting [4] was determined as 97%. Turning to `COC(=O)c1ccc(S(=O)(=O)N(Cc2ccc(F)c(C(F)(F)F)c2)c2sc3ccccc3c2C2CC2)cc1` [Compound 674, N-(3-Cyclopropyl-benzo[b]thiophen-2-yl)-N-(4-fluoro-3-trifluoromethyl-benzyl)-4-carbomethoxy-benzenesulfonamide], the IC50 under setting [1] was 77.6 nM. Moreover, the inhibition at 0.2 µM under setting [2] was found to be 85.4%.

Take `COC(=O)CCS(=O)(=O)N(Cc1ccc(OC(F)(F)F)cc1)c1sc2ccccc2c1C` [Compound 794, N-(3-Methyl-benzo[b]thiophen-2-yl)-N-(4-trifluoromethoxy-benzyl)-2-carbomethoxy-ethanesulfonamide]: under setting [1], the IC50 was 29.4 nM. The inhibition at 0.2 µM under setting [2] is 101%. The corresponding values for `CC(O)c1c(N(Cc2ccc(F)c(F)c2)S(C)(=O)=O)sc2ccccc12` (stereo not drawn) [Compound 225, N-(3,4-Difluoro-benzyl)-N-[3-(1-hydroxy-ethyl)-benzo[b]thiophen-2-yl]-methanesulfonamide] are 4 nM and 98%. Consider `CN(C)S(=O)(=O)N(CC(F)F)c1sc2ccccc2c1Br` [Compound 268, N-(3-Bromo-benzo[b]thiophen-2-yl)-N-(2,2-difluoro-ethyl)-N′,N′-dimethylsulfamide], for which the inhibition at 0.2 µM under setting [2] worked out at 67%. `Cc1c(N(Cc2cc(F)c(F)c(F)c2)S(=O)(=O)c2ccc(C(=O)O)cc2)sc2ccccc12` [Compound 517, N-(3-Methyl-benzo[b]thiophen-2-yl)-N-(3,4,5-trifluoro-benzyl)-4-carboxy-benzenesulfonamide]: under setting [1], the IC50 turned out to be 2 nM. In addition, the inhibition at 0.2 µM under setting [2] was 102%. The corresponding values for `CCCCCCN(c1sc2ccccc2c1Br)S(=O)(=O)c1ccccc1` [Compound 248, N-(3-Bromo-benzo[b]thiophen-2-yl)-N-(hexyl)-benzenesulfonamide] are 8.3 nM and 98%. For the molecule `Cc1c(N(Cc2ccc(F)c(C(F)(F)F)c2)S(=O)(=O)CCCCBr)sc2ccccc12` [Compound 771, N-(4-Fluoro-3-trifluoromethyl-benzyl)-N-(3-methyl-benzo[b]thiophen-2-yl)-4-bromo-butane-1-sulfonamide], the IC50 under setting [1] turned out to be 7.2 nM. Besides, the inhibition at 0.2 µM under setting [2] came out at 96%. Consider `CC(C)(O)c1c(N(CCCCC(F)(F)F)S(=O)(=O)c2ccc(Br)cc2)sc2ccccc12` [Compound 656, 4-Bromo-N-(3-(1-hydroxy-1-methyl-ethyl)-benzo[b]thiophen-2-yl)-N-(5,5,5-trifluoro-pentyl)-benzenesulfonamide], for which, under setting [1], the IC50 was 53.7 nM. Further, the inhibition at 0.2 µM under setting [2] was found to be 98%.

On to `CCS(=O)(=O)N(CCN1CCOCC1)c1sc2ccccc2c1C` [Compound 113, N-(3-Methyl-benzo[b]thiophen-2-yl)-N-(2-morpholin-4-yl-ethyl)-ethanesulfonamide], for which, under setting [2], the inhibition at 0.2 µM amounted to 19%.
